Reference: patent publication US11419918B2, “Treatment of biliary cirrhosis based on oxyntomodulin analogue GLP-1R/GCGR dual-target agonist peptide” (Shenzhen Turier Biotech Co., Ltd., priority 2017, dated 2022)
Numbered stars: 1 amine (or outer) side, 2 acyl side, 3 side chain; on linkers, the order of the positions; unused ones are H or OH. Square brackets hold non-standard residues; d marks the D form. Primed or numbered codes have the meaning given here. Side chains are listed from the residue outwards. Ends that are not written are not given here. * marks the point of attachment. C18 diacid = O=C(O)CCCCCCCCCCCCCCCCC(=O)*; C16 diacid = O=C(O)CCCCCCCCCCCCCCC(=O)*; γGlu = O=C(O)[C@H](CCC(=O)[*:2])N[*:1]; Stearoyl = CCCCCCCCCCCCCCCCCC(=O)*; Palmitoyl = CCCCCCCCCCCCCCCC(=O)*; Nle = CCCC[C@H](N)C(=O)O; PEG2′ = not defined here; Aib = CC(C)(N)C(=O)O

test system: human hepatic stellate cells (LX-2); assay: In vitro inhibition of hepatic fibrosis: expression of activation marker α-SMA in LX-2 cells (Western Blot, β-actin internal reference); assay type: cell-based; settings: 10.0 μM, 48 hours, negative control (PBS) = 100%
Method: Hepatic stellate cell strain LX-2 was selected to study and observe the effect of different doses of test substances on the expression of LX-2 cell activation marker α-SMA. Hepatic stellate cell LX-2 was laid on 35 mm cell culture plate, cultured with DMEM (high glucose)+10% FBS+1% double-antibody culture medium (Thermo Fisher), placed overnight when the cells grew to 70% convergence at 37° C. and under the condition of 5% CO2, and treated with the above GLP-1R/GCGR dual target agonist polypeptides 1-48 (dissolved in PBS) for 48 hours the next day morning to extract cell protein, carry out Western Blot, and take β-actin as internal reference and analyze the expression quantities of α-SMA and β-actin by a gray level of Image J 1.50i. PBS with the same volume as that in experimental group was added in negative control. […] The integrating gray level of α-SMA/β-actin in the negative control group was 100% to analyze the in vitro inhibition activity of hepatic fibrosis of tested polypeptide.

| Substance | Relative expression of α-SMA (α-SMA/β-actin, %) |
| --- | --- |
| His-(D-Ser)-Gln-Gly-Thr-Phe-Thr-Ser-Asp-Lys(PEG2-PEG2-CO(CH2)14CH3)-Ser-Lys-Tyr-Leu-Asp-Aib-Arg-Arg-Ala-Gln-Asp-Phe-Val-Gln-Trp-Leu-Met-Asn-Thr-Gly-Gly-Pro-Ser-Ser-Gly-Ala-Pro-Pro-Pro-Ser-NH2 (H[dS]QGTFTSDK([PEG2′-PEG2′-Palmitoyl])SKYLD[Aib]RRAQDFVQWLMNTGGPSSGAPPPS-NH2) [Compound 31] | 36.89% |
| His-(D-Ser)-Gln-Gly-Thr-Phe-Thr-Ser-Asp-Lys(PEG2-PEG2-CO(CH2)14CH3)-Ser-Lys-Tyr-Leu-Asp-Aib-Arg-Arg-Ala-Gln-Asp-Phe-Val-Gln-Trp-Leu-Nle-Asn-Thr-Gly-Gly-Pro-Ser-Ser-Gly-Ala-Pro-Pro-Pro-Ser-NH2 (H[dS]QGTFTSDK([PEG2′-PEG2′-Palmitoyl])SKYLD[Aib]RRAQDFVQWL[Nle]NTGGPSSGAPPPS-NH2) [Compound 45] | 32.22% |
| His-(D-Ser)-Gln-Gly-Thr-Phe-Thr-Ser-Asp-Lys(PEG2-PEG2-CO(CH2)16CH3)-Ser-Lys-Tyr-Leu-Asp-Aib-Arg-Arg-Ala-Gln-Asp-Phe-Val-Gln-Trp-Leu-Met-Asn-Thr-Gly-Gly-Pro-Ser-Ser-Gly-Ala-Pro-Pro-Pro-Ser-NH2 (H[dS]QGTFTSDK([PEG2′-PEG2′-Stearoyl])SKYLD[Aib]RRAQDFVQWLMNTGGPSSGAPPPS-NH2) [Compound 32] | 37.14% |
| His-(D-Ser)-Gln-Gly-Thr-Phe-Thr-Ser-Asp-Lys(PEG2-PEG2-CO(CH2)16CO2H)-Ser-Lys-Tyr-Leu-Asp-Aib-Arg-Arg-Ala-Gln-Asp-Phe-Val-Gln-Trp-Leu-Met-Asn-Thr-Gly-Gly-Pro-Ser-Ser-Gly-Ala-Pro-Pro-Pro-Ser-NH2 (H[dS]QGTFTSDK([PEG2′-PEG2′-C18 diacid])SKYLD[Aib]RRAQDFVQWLMNTGGPSSGAPPPS-NH2) [Compound 30] | 55.53% |
| His-(D-Ser)-Gln-Gly-Thr-Phe-Thr-Ser-Asp-Lys(PEG2-PEG2-γGlu-CO(CH2)14CH3)-Ser-Lys-Tyr-Leu-Asp-Aib-Arg-Arg-Ala-Gln-Asp-Phe-Val-Gln-Trp-Leu-Leu-Asn-Thr-Gly-Gly-Pro-Ser-Ser-Gly-Ala-Pro-Pro-Pro-Ser-NH2 (H[dS]QGTFTSDK([PEG2′-PEG2′-γGlu-Palmitoyl])SKYLD[Aib]RRAQDFVQWLLNTGGPSSGAPPPS-NH2) [Compound 43] | 42.34% |
| His-(D-Ser)-Gln-Gly-Thr-Phe-Thr-Ser-Asp-Lys(PEG2-PEG2-γGlu-CO(CH2)16CO2H)-Ser-Lys-Tyr-Leu-Asp-Aib-Arg-Arg-Ala-Gln-Asp-Phe-Val-Gln-Trp-Leu-Leu-Asn-Thr-Gly-Gly-Pro-Ser-Ser-Gly-Ala-Pro-Pro-Pro-Ser-NH2 (H[dS]QGTFTSDK([PEG2′-PEG2′-γGlu-C18 diacid])SKYLD[Aib]RRAQDFVQWLLNTGGPSSGAPPPS-NH2) [Compound 47] | 40.36% |
| His-(D-Ser)-Gln-Gly-Thr-Phe-Thr-Ser-Asp-Lys(PEG2-PEG2-γGlu-CO(CH2)16CO2H)-Ser-Lys-Tyr-Leu-Asp-Aib-Arg-Arg-Ala-Gln-Asp-Phe-Val-Gln-Trp-Leu-Nle-Asn-Thr-Gly-Gly-Pro-Ser-Ser-Gly-Ala-Pro-Pro-Pro-Ser-NH2 (H[dS]QGTFTSDK([PEG2′-PEG2′-γGlu-C18 diacid])SKYLD[Aib]RRAQDFVQWL[Nle]NTGGPSSGAPPPS-NH2) [Compound 48] | 43.25% |
| His-(D-Ser)-Gln-Gly-Thr-Phe-Thr-Ser-Asp-Lys(PEG)-PEG2-γGlu-CO(CH2)14CH3)-Ser-Lys-Tyr-Leu-Asp-Aib-Arg-Arg-Ala-Gln-Asp-Phe-Val-Gln-Trp-Leu-Met-Asn-Thr-Gly-Gly-Pro-Ser-Ser-Gly-Ala-Pro-Pro-Pro-Ser-NH2 (H[dS]QGTFTSDKSKYLD[Aib]RRAQDFVQWLMNTGGPSSGAPPPS-NH2; not fully specified (residue 10); printed as His-(D-Ser)-Gln-Gly-Thr-Phe-Thr-Ser-Asp-Lys(PEG2-PEG2-γGln-CO(CH2)14CH3)-Ser-Lys-Tyr-Leu-Asp-Aib-Arg-Arg-Ala-Gln-Asp-Phe-Val-Gln-Trp-Leu-Met-Asn-Thr-Gly-Gly-Pro-Ser-Ser-Gly-Ala-Pro-Pro-Pro-Ser-NH2; also: first PEG unit on Lys10 of unstated size) [Compound 4] | 33.50% |
| His-(D-Ser)-Gln-Gly-Thr-Phe-Thr-Ser-Asp-Lys(PEG)-PEG2-γGlu-CO(CH2)16CO2H)-Ser-Lys-Tyr-Leu-Asp-Aib-Arg-Arg-Ala-Gln-Asp-Phe-Val-Gln-Trp-Leu-Met-Asn-Thr-Gly-Gly-Pro-Ser-Ser-Gly-Ala-Pro-Pro-Pro-Ser-NH2 (H[dS]QGTFTSDKSKYLD[Aib]RRAQDFVQWLMNTGGPSSGAPPPS-NH2; not fully specified (residue 10); also: first PEG unit on Lys10 of unstated size) [Compound 5] | 36.04% |
| His-(D-Ser)-Gln-Gly-Thr-Phe-Thr-Ser-Asp-Tyr-Ser-Lys(PEG2-PEG2-CO(CH2)14CH3)-Lys-Leu-Asp-Aib-Arg-Arg-Ala-Gln-Asp-Phe-Val-Gln-Trp-Leu-Met-Asn-Thr-Gly-Gly-Pro-Ser-Ser-Gly-Ala-Pro-Pro-Pro-Ser-NH2 (H[dS]QGTFTSDYSK([PEG2′-PEG2′-Palmitoyl])KLD[Aib]RRAQDFVQWLMNTGGPSSGAPPPS-NH2) [Compound 9] | 41.86% |
| His-(D-Ser)-Gln-Gly-Thr-Phe-Thr-Ser-Asp-Tyr-Ser-Lys(PEG2-PEG2-CO(CH2)16CO2H)-Lys-Leu-Asp-Aib-Arg-Arg-Ala-Gln-Asp-Phe-Val-Gln-Trp-Leu-Met-Asn-Thr-Gly-Gly-Pro-Ser-Ser-Gly-Ala-Pro-Pro-Pro-Ser-NH2 (H[dS]QGTFTSDYSK([PEG2′-PEG2′-C18 diacid])KLD[Aib]RRAQDFVQWLMNTGGPSSGAPPPS-NH2) [Compound 2] | 41.62% |
| His-(D-Ser)-Gln-Gly-Thr-Phe-Thr-Ser-Asp-Tyr-Ser-Lys(PEG2-PEG2-γGlu-CO(CH2)14CH3)-Lys-Leu-Asp-Aib-Arg-Arg-Ala-Gln-Asp-Phe-Val-Gln-Trp-Leu-Met-Asn-Thr-Gly-Gly-Pro-Ser-Ser-Gly-Ala-Pro-Pro-Pro-Ser-NH2 (H[dS]QGTFTSDYSK([PEG2′-PEG2′-γGlu-Palmitoyl])KLD[Aib]RRAQDFVQWLMNTGGPSSGAPPPS-NH2) [Compound 1] | 63.5% |
| His-(D-Ser)-Gln-Gly-Thr-Phe-Thr-Ser-Asp-Tyr-Ser-Lys-Tyr-Leu-Asp-Aib-Lys(PEG2-PEG2-γGlu-CO(CH2)14CH3)-Arg-Ala-Gln-Asp-Phe-Val-Gln-Trp-Leu-Met-Asn-Thr-Gly-Gly-Pro-Ser-Ser-Gly-Ala-Pro-Pro-Pro-Ser-NH2 (H[dS]QGTFTSDYSKYLD[Aib]K([PEG2′-PEG2′-γGlu-Palmitoyl])RAQDFVQWLMNTGGPSSGAPPPS-NH2) [Compound 33] | 35.45% |
| His-(D-Ser)-Gln-Gly-Thr-Phe-Thr-Ser-Asp-Tyr-Ser-Lys-Tyr-Leu-Asp-Glu-Lys-Ala-Ala-Lys(PEG2-PEG2-γGlu-CO(CH2)14CH3)-Glu-Phe-Ile-Glu-Trp-Leu-Leu-Arg-Ala-NH2 (H[dS]QGTFTSDYSKYLDEKAAK([PEG2′-PEG2′-γGlu-Palmitoyl])EFIEWLLRA-NH2) [Compound 23] | 45.91% |
| His-(D-Ser)-Gln-Gly-Thr-Phe-Thr-Ser-Asp-Tyr-Ser-Lys-Tyr-Leu-Asp-Glu-Lys-Ala-Ala-Lys(PEG2-PEG2-γGlu-CO(CH2)14CH3)-Glu-Phe-Ile-Glu-Trp-Leu-Leu-Asn-Gly-Gly-Pro-Ser-Ser-Gly-Ala-Pro-Pro-Pro-Ser-NH2 (H[dS]QGTFTSDYSKYLDEKAAK([PEG2′-PEG2′-γGlu-Palmitoyl])EFIEWLLNGGPSSGAPPPS-NH2) [Compound 29] | 49.36% |
| His-(D-Ser)-Gln-Gly-Thr-Phe-Thr-Ser-Asp-Tyr-Ser-Lys-Tyr-Leu-Asp-Glu-Lys-Ala-Ala-Lys(PEG2-PEG2-γGlu-CO(CH2)14CO2H)-Glu-Phe-Ile-Glu-Trp-Leu-Leu-Asn-Gly-Gly-Pro-Ser-Ser-Gly-Ala-Pro-Pro-Pro-Ser-NH2 (H[dS]QGTFTSDYSKYLDEKAAK([PEG2′-PEG2′-γGlu-C16 diacid])EFIEWLLNGGPSSGAPPPS-NH2) [Compound 27] | 32.34% |
| His-(D-Ser)-Gln-Gly-Thr-Phe-Thr-Ser-Asp-Tyr-Ser-Lys-Tyr-Leu-Asp-Glu-Lys-Ala-Ala-Lys(PEG2-PEG2-γGlu-CO(CH2)16CH3)-Glu-Phe-Ile-Glu-Trp-Leu-Leu-Arg-Ala-NH2 (H[dS]QGTFTSDYSKYLDEKAAK([PEG2′-PEG2′-γGlu-Stearoyl])EFIEWLLRA-NH2) [Compound 24] | 32.42% |
| His-(D-Ser)-Gln-Gly-Thr-Phe-Thr-Ser-Asp-Tyr-Ser-Lys-Tyr-Leu-Asp-Glu-Lys-Ala-Ala-Lys(PEG2-PEG2-γGlu-CO(CH2)16CH3)-Glu-Phe-Ile-Glu-Trp-Leu-Leu-Asn-Gly-Gly-Pro-Ser-Ser-Gly-Ala-Pro-Pro-Pro-Ser-NH2 (H[dS]QGTFTSDYSKYLDEKAAK([PEG2′-PEG2′-γGlu-Stearoyl])EFIEWLLNGGPSSGAPPPS-NH2) [Compound 28] | 37.62% |
| His-(D-Ser)-Gln-Gly-Thr-Phe-Thr-Ser-Asp-Tyr-Ser-Lys-Tyr-Leu-Asp-Glu-Lys-Ala-Ala-Lys(PEG2-PEG2-γGlu-CO(CH2)16CO2H)-Glu-Phe-Ile-Glu-Trp-Leu-Leu-Arg-Ala-NH2 (H[dS]QGTFTSDYSKYLDEKAAK([PEG2′-PEG2′-γGlu-C18 diacid])EFIEWLLRA-NH2) [Compound 18] | 45.60% |
